Assay results: patent US20240139149A1, “THERAPEUTIC USES OF UROLITHIN DERIVATIVES” (Vandria SA, priority 2022, published 2024)

What was measured:
APTK-OVA tumors = assay: Adoptive transfer of UA-conditioned OT-1 T cells into Rag1−/− mice; type: in vivo, mouse
Protocol: For adoptive cell transfer, purified splenic T cell from OT1 mice were isolated and activated using αCD3/αCD28 stimulation beads for 48 h. After magnetic bead removal, 1×10^6 T of activated T cell were intravenously injected into Rag1−/− recipients. To study survival of transferred T cells, stimulated OT-1 T cells were injected into mice without tumors. Subsequently, after 7 days, spleens were isolated and splenocytes were stained for the CD8+ subsets as described below. To understand antitumor immunity conferred by transferred OT-1 lymphocytes, cells were injected into mice carrying APTK-OVA tumors 10 days after subcutaneous organoid transplantation. Tumor growth was assessed as described above. Mice were kept under regular chow food for the T cell adoptive transfer experiment and sacrificed collectively when maximum tumor diameter extended 1.5 cm.
Tumors were minced and digested with Tumor & Tissue Dissociation Reagent (BD Horizon) for 30 min. The remaining organ pieces were filtered through a 70 µm cell strainer. Cells were then washed with PBS 1% BSA and 2 mM EDTA. Immune cells were enriched on a 30%/40%/75% Percoll gradient after a 1700 rpm 17 min centrifugation. Then, tumor immune filtrates or activated T cells were stained with Fixable Viability Dye-eF780 (65-0865-14; eBioscience), αCD45-FITC (30-F11; 11-0451-85; eBioscience), αCD11b-BV650 (M1/70; 56340; BD) α-CD11c-BV785 (HL3; 563735; BD), aLy6G-BV605 (53-6.7; 563005; BD), aLy6C-AF700 (HK1.4; 128024; Biolegend), aF4/80-PE (BM8; 12-4801-82, eBioscience), aPD-L1-PECy7 (MIH5; 25-5982-80, eBioscience); or with Fixable Viability Dye-eF780 (ebioscience), αCD45-BV786 (30-F11; 564225; BD), αCD4-BUV496 (GK1.5; 564667; BD), αCD8-BV605 (100744; Biolegend), aPD1-APC (J43; 17-9985-82; eBioscience), aTIM-3-PECy7 (RMT3-23; 119715; Biolegend), aCTLA4-PE (UC10-4B9; 106305; Biolegend) and aLag3-BV421 (C9B7W; 125221, Biolegend); or with Fixable Viability Dye-eF780 (eBioscience), αCD4-FITC (H129.19; 553650; BD), αCD8-APC (53-6.7; 17-0081-83; eBioscience), αCD44-AF400 (IM7; 103026; Biolegend), αCD62L-BV785 (MEL-14; 104440; Biolegend), αSca-1-PerCP-Cy5.5 (D7; 45-5981-82; eBioscience), αCD95-PE (Jo2; 554258; BD); or with Fixable Viability Dye-eF780 (eBioscience), αCD8-BV650 (53-6.7; 563234; BD), αCD4-BUV496 (GK1.5; 564667; BD), αCD127-APC (A7R34; 17-1271-82; eBioscience), αCD95-FITC (SA367H8;152605; Biolegend), αCD44-AF400 (IM7; 103026; Biolegend), αCD62L-BV785 (MEL-14; 104440; Biolegend), αSca-1-PerCP-Cy5.5 (D7; 45-5981-82; eBioscience) followed by intracellular staining of aTCF1-PE (S33-966; 564217; BD), or PGC-1α (sc-518025; D-5; santa cruz), or aCyclinD1 (MA5-28534, DCS-6; Invitrogen) with transcription factor buffer set kit (BD Biosciences). To study cytokine expression, tumor immune infiltrates were stimulated ex vivo with 20 ng/mL PMA and […] Ionomycin (Sigma) for 3 h in T cell activation medium with Brefeldin A (Biolegend). For T cell in vitro activation experiments over several days, Brefeldin A was added to the medium for the last 3 hours. Cells were then stained with Fixable Viability Dye-eF780 (eBioscience), αCD8-PeCy7 (53.6-7; 100722; Biolegend), αCD4-AF700 (GK1.5; 100429; Biolegend), and intracellular staining for cytokine assessment was performed with BD Cytofix/Cytoperm (BD) with 20 min fixation and overnight incubation with αGranzyme B-FITC (GB11; 515403; Biolegend), αIFNγ-PerCPCy5.5 (XMG1.2; 45-7311-82; eBioscience) and αTNFa-BV711 (MP6-XT22; 563944; BD). For flow cytometric analysis of mitochondria and lysosomes 500 μl of Mitotracker Red (200 nM; ThermoFisher) or Lysotracker Red DND-99 (75 nM; ThermoFisher) were applied followed by surface staining. To study changes in mitochondrial membrane potential, Mitoprobe TMRM kit (ThermoFisher) was used according to the manufacturer's instructions. Cell proliferation was assessed by CellTrace Violet (Invitrogen, C34557) at a concentration of […] according to manufacturer's instructions. […]

mouse T lymphocytes = assay: Mitochondrial content (Mitotracker positive cells) in mouse T lymphocytes; type: cell-based; conditions: 2 μM, 72 h
Protocol: Splenic murine T cells were isolated from mice aged 6-20 weeks by negative selection with EasySep mouse T cell isolation kit (Stem cell) according to the manufacturer's instructions. T cell activation was initiated using CD3/CD28 activation beads (11456D; ThermoFisher Scientific) at a ratio of 25 μl dynabeads per 0.5×10^6 T-cells. Cells were activated with test compounds at 2 μM or DMSO in T cell activation Medium (RPMI (ThermoFisher Scientific) 10% FBS (South America origin), 10 mM Hepes (Sigma), 1× Non-Essential Amino Acid, 1 mM Sodium Pyruvate, 50 μM β-Mercaptoethanol, 100 U/ml penicillin, 100 μg/ml streptomycin and 2 mM Glutamax (ThermoFisher Scientific) for 72 h. For subsequent analysis, activating beads were magnetically removed prior staining.
For flow cytometric analysis of mitochondria 500 μl of Mitotracker Red (200 nM; ThermoFisher) was applied followed by surface staining.
Cell doublets and cells debris were excluded from the analysis by gating FSC-A vs FSC-H followed by SSC-A vs SSC-H dot plots and FSC-A vs SSC-A dot plots, respectively. eFluor 780 highly positive cells, i.e, dead cells, were gated out of the analysis. Data was acquired on Canto II (BD), Fortessa (BD) and Aurora (Cytek) cytometers and analyzed with FlowJo.

| Compound | CD62L expression in CD8+ TIL (APTK-OVA tumors; UA-T cell transfer) | expression of CD44 in CD8+ TIL (APTK-OVA tumors; UA-T cell transfer) | number of TCF1HiCD8+ tumor infiltrating T cells (APTK-OVA tumors; UA-T cell transfer) | suppression of APTK-OVA tumors (APTK-OVA tumors; UA-conditioned vs control OT-I T cells) | Tim3HiPD1Hi terminally exhausted CD8+ T cells in the TME (APTK-OVA tumors; UA-pretreated T cells) | increase in the percentage of Mitotracker positive cells vs DMSO (mouse T lymphocytes) | percentage of Mitotracker positive cells (mouse T lymphocytes; DMSO 44%) |
| --- | --- | --- | --- | --- | --- | --- | --- |
| O=c1oc2cc(O)ccc2c2ccc(O)cc12 [UA, Urolithin A] | remained unchanged | lower expression | higher number | more substantial tumor suppression | less |  |  |
| O=c1oc2cc(O)ccc2c2ccc(OC3CCOCC3)cc12 [compound 33, 3-hydroxy-8-((tetrahydro-2H-pyran-4-yl)oxy)-6H-benzo[c]chromen-6-one] |  |  |  |  |  | 19% | 52.5% |
